Like-named read-outs stand apart in the source and are kept apart here.
Assays:
[1] = test system: 6-OHDA-induced PD mouse model; set-up: method as in PMID 31689937; conditions: cited from earlier work
[2] = biological target: T1, recombinant α-synuclein (Homo sapiens, UniProt P37840); assay: In vitro recombinant α-synuclein aggregation, Western blot; format: biochemical; conditions: 100 μM, 37 °C, 3 or 5 days
T1 construct: made in house; host or cells: Escherichia coli BL21
Method: Figure 2 PCiv prevents α-synuclein aggregation in vitro and in cultured neurons with PFF treatment. (A) Representative Western blots showing the degree of recombinant α-synuclein (αSyn) aggregation in a test tube in the presence or absence of PCiv (100 μM) at the indicated incubation duration (phosphate-buffered saline [PBS], 37 °C for 3 or 5 days). Aggregation of α-synuclein was determined using α-synuclein antibody. (B) Quantification of the relative amount of α-synuclein aggregate in high molecular weight sizes in panel A (n = 3 per group). […] (D) Quantification of pS129-αSyn immunofluorescence signal intensities in MAP2-positive cortical neurons in each experimental group (n = 15 cells from three separate experiments). (E) Cell viability assessment in the indicated experimental groups was monitored by CCK-8 assay (n = 3 per group). The data are expressed as means ± SEMs. * p < 0.05, ** p < 0.01, *** p < 0.001, and **** p < 0.0001, ANOVA test followed by Tukey’s post hoc analysis. […]
(A) Representative Western blots showing the degree of recombinant α-synuclein (αSyn) aggregation in a test tube in the presence or absence of t-Khellatone, PCiii, and PCiv (100 μM) at 0 and 5 days of incubation (phosphate-buffered saline [PBS], 37 °C for 5 days). Aggregation of α-synuclein was determined using α- synuclein antibody. […]

[3] = Rat tissue distribution 15 min after intravenous bolus; format: in vivo; conditions: rats; for Kp at 15 min: Sprague-Dawley, rat, brain
Method: Figure 3 Pharmacokinetic analysis and tissue distribution of PCiv. (A) Pharmacokinetic analysis of blood PCiv levels at each indicated time point following intravenous or oral administration of PCiv (10 mg/kg) determined by ultra-performance liquid chromatography (n = 4 rats for oral and 5 rats for intravenous administration). (B) Quantification of PCiv levels in each indicated tissue (ng/g tissue weight) determined by ultra-performance liquid chromatography (n = 3 rats, tissues collected 15 min after intravenous PCiv administration (10 mg/kg). PCiv was dissolved in a vehicle (DMSO:PEG400:saline ratio of 5:70:25) for solubilization. The quantified data are expressed as means ± standard deviations.
In vivo rat pharmacokinetic studies were performed for intravenous and oral administration of PCiv as previously reported. Sprague-Dawley rats (8 weeks old, 260–280 g) were purchased from Orient Bio Inc. (Seongnam, Korea). Rats were maintained with free access to food and water under a 12:12 h light/dark cycle for 1 week. For pharmacokinetic studies, under anesthetic conditions (20 mg/kg tiletamine/zolazepam [Zoletil; Vibrac Laboratories, Carros, France] administered intramuscularly), the femoral vein and artery were surgically cannulated using polyethylene tubing (PE50; Clay Adams, Parsippany, NJ, USA) in fasted rats. Then, PCiv was administered intravenously and orally at a dose of 10 mg/kg (n = 4–5). The drug was dissolved in a vehicle (DMSO:PEG400:saline at a ratio of 5:70:25). Blood samples (approximately 100 μL) were collected at predetermined time points (0, 1, 5 (intravenous administration only), 15, 30, 60, 120, 180, 240, 360, and 480 min) after drug administration. […] The PCiv level was determined using a CapcellpakTM C18 5 μm column (250 × 1.5 mm, Shiseido Fine Chemical Co., Tokyo, Japan), as previously described. […] The tissue concentration levels were calculated as the PCiv amount (ng) per gram of organ weight.

| SMILES | neuroprotection [1] | aggregation of recombinant α-synuclein into high molecular weight species [2] | Kp at 15 min ([3]; 15 min after intravenous 10 mg/kg, read-out: brain tissue-to-plasma concentration ratio) | Kp at 15 min ([3]; intravenous, 10 mg/kg, read-out: distribution to target organ compared with the plasma concentration) | tissue-to-plasma concentration ratio, liver and kidneys ([3]; 15 min after intravenous 10 mg/kg) |
| --- | --- | --- | --- | --- | --- |
| C/C=C(\C)C(=O)O[C@@H]1c2c(ccc3ccc(=O)oc23)OC(C)(C)[C@H]1OC(C)=O (relative stereo) [PCiii, peucedanocoumarin III] | neuroprotective |  |  |  |  |
| C/C=C(\C)C(=O)O[C@H]1[C@H](OC(C)=O)c2c(ccc3ccc(=O)oc23)OC1(C)C (relative stereo) [PCiv, trans-4′-acetyl-3′-tigloylkhellactone] |  | robustly blocked | 6.4 | 6.4 | low |
